The source of these data is patent US9771369B2, “Compounds and methods for kinase modulation, and indications therefor” (Plexxikon Inc., priority 2014, dated 2017).

Test [1] relates to BaF3-FL KIT D816V or BaF3-FL KIT V560G/D816V cell line. As to the kind of experiment: Cell-based assays of c-Kit mutant kinase activity (cell proliferation, ATPlite). To be noted: at least one of the c-kit cell assays of Example 7. The method, boiled down: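 BaF3 cells dependent on transfected full-length human KIT D816V or V560G/D816V (pCI-Neo, CMV promoter) were seeded at 1×10^4 cells/well and exposed to 8-point 1:3 dilutions from 10 μM top (0.2% DMSO) for three days at 37° C. ATPlite luminescence gave cell number; IC50 from concentration-response.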
For orientation: ATP-based viability assays read luminescence as a measure of living cells.

Another test concerns the target c-kit mutant D816V (Homo sapiens (Human), UniProt P10721, D816V/DEL694-753). Nature of the test: c-Kit mutant D816V biochemical assay (AlphaScreen kinase activity). In a few lines: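 AlphaScreen with streptavidin donor and PY30 acceptor beads read phosphotyrosine on biotin-(E4Y)10 substrate (30 nM). Enzyme: E. coli-expressed N-His c-Kit D816V, residues 551-934 lacking kinase insert 694-753. Reaction 30 min at room temperature, 10 μM ATP, 5% DMSO; IC50 fitted over 8 three-fold dilutions.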

c-kit mutant D816V, sequence (P10721 other isoform, or with tags, fused parts or gaps D816V/del 694-753): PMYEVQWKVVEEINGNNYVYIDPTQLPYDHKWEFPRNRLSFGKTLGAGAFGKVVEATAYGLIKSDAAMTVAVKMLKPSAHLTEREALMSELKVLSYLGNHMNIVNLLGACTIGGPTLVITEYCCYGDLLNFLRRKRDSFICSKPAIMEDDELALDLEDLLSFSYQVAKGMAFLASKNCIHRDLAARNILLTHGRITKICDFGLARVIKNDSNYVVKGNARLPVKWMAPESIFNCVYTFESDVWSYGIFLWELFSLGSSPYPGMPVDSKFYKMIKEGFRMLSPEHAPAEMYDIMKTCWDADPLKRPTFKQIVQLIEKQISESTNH

Turning to `Cc1nn(C)cc1-c1cc2c(N3CCC(c4nc(C)c(-c5ccc(OC(F)(F)F)cc5)[nH]4)CC3)ncnc2[nH]1` [P-3122, 6-(1,3-dimethylpyrazol-4-yl)-4-[4-[4-methyl-5-[4-(trifluoromethoxy)phenyl]-1H-imidazol-2-yl]-1-piperidyl]-7H-pyrrolo[2,3-d]pyrimidine], the half-maximal inhibitory concentration (IC50) (as a rule, the concentration at which inhibition is half-maximal) was under 10000 nM in test [1] and 0.0001 to 1 µM against c-kit mutant D816V.
In the case of `COc1cccc(-c2[nH]c(C3CCN(c4ncnc5[nH]c(-c6ccnc(OC)c6)cc45)CC3)nc2C(F)(F)F)c1` [P-3123, 4-[4-[5-(3-methoxyphenyl)-4-(trifluoromethyl)-1H-imidazol-2-yl]-1-piperidyl]-6-(2-methoxy-4-pyridyl)-7H-pyrrolo[2,3-d]pyrimidine], the half-inhibitory concentration (IC50) in test [1] was under 10000 nM; at c-kit mutant D816V, 0.0001 to 1 µM.
As for `COc1cccc(-c2[nH]c(C3CCN(c4ncnc5[nH]c(-c6ccc(C#N)cc6)cc45)CC3)nc2C(F)(F)F)c1` [P-3124, 4-[4-[4-[5-(3-methoxyphenyl)-4-(trifluoromethyl)-1H-imidazol-2-yl]-1-piperidyl]-7H-pyrrolo[2,3-d]pyrimidin-6-yl]benzonitrile], the IC50 in test [1] was under 10000 nM; against c-kit mutant D816V it was 0.0001 to 1 µM.
On to `CCOc1ccc(-c2[nH]c(C3CCN(c4ncnc5[nH]c(C)cc45)CC3)nc2C)cc1C` [P-3125, 4-[4-[5-(4-ethoxy-3-methyl-phenyl)-4-methyl-1H-imidazol-2-yl]-1-piperidyl]-6-methyl-7H-pyrrolo[2,3-d]pyrimidine], for which the concentration for half-maximal inhibition (IC50) in test [1] was under 10000 nM; against c-kit mutant D816V, 1 to 10 µM.
For `CCOc1cc(-c2[nH]c(C3CCN(c4ncnc5[nH]c(C)cc45)CC3)nc2C)ccc1C` [P-3126, 4-[4-[5-(3-ethoxy-4-methyl-phenyl)-4-methyl-1H-imidazol-2-yl]-1-piperidyl]-6-methyl-7H-pyrrolo[2,3-d]pyrimidine], the IC50 in test [1] was under 10000 nM; against c-kit mutant D816V, 0.0001 to 1 µM.
With `Cc1cc2c(N3CCC(c4nc(C)c(-c5ccc6c(c5)OC(F)(F)O6)[nH]4)CC3)ncnc2[nH]1` [P-3127, 4-[4-[5-(2,2-difluoro-1,3-benzodioxol-5-yl)-4-methyl-1H-imidazol-2-yl]-1-piperidyl]-6-methyl-7H-pyrrolo[2,3-d]pyrimidine], the half-maximal inhibitory concentration (IC50) is under 10000 nM in test [1] and 1 to 10 µM against c-kit mutant D816V.
As for `COc1ccc(-c2[nH]c(C3CCN(c4ncnc5[nH]c(C)cc45)CC3)nc2C)cc1C` [P-3128, 4-[4-[5-(4-methoxy-3-methyl-phenyl)-4-methyl-1H-imidazol-2-yl]-1-piperidyl]-6-methyl-7H-pyrrolo[2,3-d]pyrimidine], the IC50 is under 10000 nM in test [1] and 0.0001 to 1 µM on c-kit mutant D816V.
As to `COc1cc(-c2[nH]c(C3CCN(c4ncnc5[nH]c(C)cc45)CC3)nc2C)ccc1C` [P-3129, 4-[4-[5-(3-methoxy-4-methyl-phenyl)-4-methyl-1H-imidazol-2-yl]-1-piperidyl]-6-methyl-7H-pyrrolo[2,3-d]pyrimidine], the IC50 was under 10000 nM in test [1] and 1 to 10 µM at c-kit mutant D816V.
The like results for `COc1ccc(-c2[nH]c(C3CCN(c4ncnc5[nH]c(C)cc45)CC3)nc2C)cc1` [P-3130, 4-[4-[5-(4-methoxyphenyl)-4-methyl-1H-imidazol-2-yl]-1-piperidyl]-6-methyl-7H-pyrrolo[2,3-d]pyrimidine] were, in that order, under 10000 nM and 1 to 10 µM.
Take `COc1cccc(-c2[nH]c(C3CCN(c4ncnc5[nH]c(C)cc45)CC3)nc2C)c1` [P-3131, 4-[4-[5-(3-methoxyphenyl)-4-methyl-1H-imidazol-2-yl]-1-piperidyl]-6-methyl-7H-pyrrolo[2,3-d]pyrimidine]: the half-maximal inhibitory concentration (IC50) in test [1] was under 10000 nM; on c-kit mutant D816V, 0.0001 to 1 µM.
The like results for `Cc1nc(C2CCN(c3ncnc4[nH]c(-c5ccc(C#N)cc5)cc34)CC2)[nH]c1-c1ccc2c(c1)OCCO2` [P-3132, 4-[4-[4-[5-(2,3-dihydro-1,4-benzodioxin-6-yl)-4-methyl-1H-imidazol-2-yl]-1-piperidyl]-7H-pyrrolo[2,3-d]pyrimidin-6-yl]benzonitrile] were, in that order, under 10000 nM and 0.0001 to 1 µM.
Taken in the same sequence, the figures for `Cc1nc(C2CCN(c3ncnc4[nH]c(-c5cnn(C(F)F)c5)cc34)CC2)[nH]c1-c1ccc2c(c1)OCCO2` [P-3133, 6-[1-(difluoromethyl)pyrazol-4-yl]-4-[4-[5-(2,3-dihydro-1,4-benzodioxin-6-yl)-4-methyl-1H-imidazol-2-yl]-1-piperidyl]-7H-pyrrolo[2,3-d]pyrimidine] were under 10000 nM and 0.0001 to 1 µM.
For the compound `COc1cc(-c2cc3c(N4CCC(c5nc(C(F)(F)F)c(-c6ccc(C)cc6)[nH]5)CC4)ncnc3[nH]2)ccn1` [P-3134, 6-(2-methoxy-4-pyridyl)-4-[4-[5-(p-tolyl)-4-(trifluoromethyl)-1H-imidazol-2-yl]-1-piperidyl]-7H-pyrrolo[2,3-d]pyrimidine], the IC50 in test [1] is under 10000 nM; on c-kit mutant D816V it was 0.0001 to 1 µM.
In the case of `Cc1ccc(-c2[nH]c(C3CCN(c4ncnc5[nH]c(-c6ccc(F)cc6)cc45)CC3)nc2C(F)(F)F)cc1` [P-3135, 6-(4-fluorophenyl)-4-[4-[5-(p-tolyl)-4-(trifluoromethyl)-1H-imidazol-2-yl]-1-piperidyl]-7H-pyrrolo[2,3-d]pyrimidine], the IC50 in test [1] is under 10000 nM; against c-kit mutant D816V it was 0.0001 to 1 µM.
In the case of `Cc1nc(C2CCN(c3ncnc4[nH]c(-c5ccc(F)cc5)cc34)CC2)[nH]c1-c1ccc(C(F)(F)F)cc1` [P-3136, 6-(4-fluorophenyl)-4-[4-[4-methyl-5-[4-(trifluoromethyl)phenyl]-1H-imidazol-2-yl]-1-piperidyl]-7H-pyrrolo[2,3-d]pyrimidine], the half-inhibitory concentration (IC50) is under 10000 nM in test [1] and 0.0001 to 1 µM against c-kit mutant D816V.
On to `Cc1nc(C2CCN(c3ncnc4[nH]c(-c5ccc(C#N)cc5)cc34)CC2)[nH]c1-c1ccc(C(F)(F)F)cc1` [P-3137, 4-[4-[4-[4-methyl-5-[4-(trifluoromethyl)phenyl]-1H-imidazol-2-yl]-1-piperidyl]-7H-pyrrolo[2,3-d]pyrimidin-6-yl]benzonitrile], for which the figures for the IC50 (in test [1]; at c-kit mutant D816V) were under 10000 nM and 0.0001 to 1 µM, respectively.
Taken in the same sequence, the figures for `Cc1nc(C2CCN(c3ncnc4[nH]c(-c5cnn(C(F)F)c5)cc34)CC2)[nH]c1-c1ccc2c(c1)OCO2` [P-3138, 4-[4-[5-(1,3-benzodioxol-5-yl)-4-methyl-1H-imidazol-2-yl]-1-piperidyl]-6-[1-(difluoromethyl)pyrazol-4-yl]-7H-pyrrolo[2,3-d]pyrimidine] were under 10000 nM and 0.0001 to 1 µM.
The like results for `CCOc1ccc(-c2[nH]c(C3CCN(c4ncnc5[nH]c(-c6cnn(C(F)F)c6)cc45)CC3)nc2C)cc1C` [P-3139, 6-[1-(difluoromethyl)pyrazol-4-yl]-4-[4-[5-(4-ethoxy-3-methyl-phenyl)-4-methyl-1H-imidazol-2-yl]-1-piperidyl]-7H-pyrrolo[2,3-d]pyrimidine] were, in that order, under 10000 nM and 0.0001 to 1 µM.
Taken in the same sequence, the figures for `CCC1(c2nc(C)c(-c3ccc(OC)cc3)[nH]2)CCN(c2ncnc3[nH]c(C)cc23)CC1` [P-3140, 4-[4-ethyl-4-[5-(4-methoxyphenyl)-4-methyl-1H-imidazol-2-yl]-1-piperidyl]-6-methyl-7H-pyrrolo[2,3-d]pyrimidine] were under 10000 nM and 0.0001 to 1 µM.
